Experimental data as given in US11324732B2, “Methods for the treatment of dyskinesia in cerebral palsy” (AUSPEX PHARMACEUTICALS, INC., priority 2018, dated 2022).

How the values were obtained:
[1] = test system: adult patients diagnosed with DCP, choreiform predominant; assay: Example 3: Phase 3 efficacy study in adults; assay type: in vivo, human
Experimental: (§1) A Phase 3 study to evaluate the efficacy and safety of deutetrabenazine is performed on a population consisting of male and female patients, diagnosed with DCP. Patients may be included in the study only if they meet all of the following criteria: • 1. Patient is older than 18 years of age at baseline. • 2. Patient has had cerebral palsy (CP) symptoms since infancy (≤2 years). • 3. Patient has a diagnosis of DCP according to the Surveillance of Cerebral Palsy in Europe criteria. • 4. Patient has a total score of ≥10 on the MD-CRS part II items at the baseline visit, based on investigator scoring of chorea. • 5. Patient's symptoms are causing functional problems determined by a Clinical Global
Impression of Severity (CGI-S) score of 4 or greater based on investigator scoring. • 6. Choreiform is the predominant movement disorder as assessed by the EAB at screening.
(§2) Patients will receive 6 mg to 48 mg of deutetrabenazine. The titration scheme and maximum dose follows the one in the parent study, Example 1, supra.

[2] = test system: pediatric patients diagnosed with DCP, predominant motor symptoms dystonic; assay: Example 4: Phase 3 efficacy study, predominantly dystonic DCP; assay type: in vivo, human
Experimental: as §1, with “6 through” for “older than”, “age (inclusive)” for “age”
Impression of Severity (CGI-S) score of 4 or greater based on investigator scoring. • 6. Patient's predominant motor symptoms are dystonic.
as §2

[3] = test system: patients (age 6 through 18 years) with DCP with predominant choreiform movement disorder
[4] = test system: children and adolescents with dyskinesia in cerebral palsy
[5] = relative to tetrabenazine; U.S. Pat. No. 8,524,733; cited from earlier work
[6] = test system: patients with CP; conditions: cited from earlier work
[7] = versus placebo, from baseline to week 15

[2H]C([2H])([2H])Oc1cc2c(cc1OC([2H])([2H])[2H])[C@H]1CC(=O)[C@H](CC(C)C)CN1CC2 (racemic) [deutetrabenazine, (RR,SS)-1,3,4,6,7,11b-hexahydro-9,10-di(methoxy-d3)-3-(2-methylpropyl)-2H-benzo[a]quinolizin-2-one]
safety profile [1]: favorable safety profile
abnormal involuntary movements associated with dyskinesia in cerebral palsy ([1]; 6 mg to 48 mg): reduce abnormal involuntary movements
safety profile [2]: favorable safety profile
dystonic abnormal involuntary movements associated with dyskinesia in cerebral palsy ([2]; 6 mg to 48 mg): reduce dystonic abnormal involuntary movements
overall safety and efficacy of treatment ([3]; 6-48 mg/day oral, versus placebo): safe and effective
PGI-I response ([3]; Much Improved or Somewhat Improved in the PGI-I score): demonstrate a PGI-I response
CGI-I response ([3]; Much Improved or Very Much Improved in the CGI-I score): demonstrate a CGI-I response
CaGI-I response ([3]; Much Improved or Very Much Improved in the CaGI-I score): demonstrate a CaGI-I response
PEDI-CAT ([3]; activities of daily living, parent/caregiver completed): improvement
UHDRS-TMC ([3]; in vivo): significant reductions
UHDRS-TMD ([3]; in vivo): significant reductions
UHDRS-TMS ([3]; in vivo): significant reductions
safety by C-SSRS, ESRS, CBCL, ESS and lack of serious adverse events ([3]; in vivo): safe
CP module of the PedsQL ([3]; quality of life, patient/caregiver): significant reductions
CGI-S response ([3]; reduction of >1 point in the CGI-S score): demonstrate a CGI-S response
reduction in the CGI-I score [3, 7]: 0.5-0.7 points
reduction in the CaGI-I score [3, 7]: 0.5-0.7 points
reduction in the MD-CRS part I total score [3, 7]: 2-4 points
reduction in the MD-CRS part II total score [3, 7]: 0.5-4 points
all primary and secondary endpoints ([3]; versus placebo, week 15): significant improvements
safety profile ([4]; in vivo): favorable safety profile
abnormal involuntary movements associated with dyskinesia in cerebral palsy ([4]; long term administration of tolerable amounts): reduce abnormal involuntary movements
half-life of its active metabolites [5]: increased half-life

Nc1ccncc1 [Dalfampridine]
functional improvement [6]: failed to demonstrate functional improvement
